Data on six compounds can be found in PubChem BioAssay (NCI).

Test systems include MDA-MB-231 breast; KM12 colon; M14 melanoma; SK-OV-3 ovarian; NCI-H522 lung; MOLT-4 leukemia; LOX IMVI melanoma; K-562 leukemia; SNB-19 CNS; SK-MEL-5 melanoma.
Holding throughout (assay): inhibition of tumour cell growth, NCI panel, 48 h

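These data come from cells grown in 96-well plates and exposed to compound for 48 hours at five concentrations. GI50: concentration for 50% inhibition of growth. At the TGI there is no net growth.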 Some results are limits rather than exact numbers.

On to `COc1cc(OC)c(/C=C/C(=O)c2c(N)cc(OC)cc2OC)c(OC)c1`, for which the GI50 was 1.35 µM in the test with MDA-MB-231 breast; 0.303 µM with KM12 colon; 0.349 µM with M14 melanoma; 0.767 µM with SK-OV-3 ovarian; 0.234 µM in the test with NCI-H522 lung; 1.02 µM in the test on MOLT-4 leukemia. Moreover, the GI50 was 0.537 µM with LOX IMVI melanoma, 0.305 µM in the test on K-562 leukemia, 0.654 µM with SNB-19 CNS and 0.332 µM in the test on SK-MEL-5 melanoma. Further, the TGI in the test on MDA-MB-231 breast is more than 100 µM; with KM12 colon it was 47.9 µM; in the test with M14 melanoma, more than 100 µM; with SK-OV-3 ovarian, more than 100 µM; with NCI-H522 lung, 0.901 µM; in the test with MOLT-4 leukemia it was more than 100 µM. Also, the TGI in the test on LOX IMVI melanoma, in the test on K-562 leukemia, with SNB-19 CNS and in the test with SK-MEL-5 melanoma was more than 100 µM throughout.
`Cc1cc(-c2ccco2)cc(C)c1/C=C/c1cncc(-c2nn[nH]n2)c1`: the GI50 in the test on MDA-MB-231 breast, with KM12 colon, in the test on M14 melanoma, in the test with SK-OV-3 ovarian, in the test on NCI-H522 lung and in the test with MOLT-4 leukemia was more than 25 µM in each case. Besides, the GI50 in the test with LOX IMVI melanoma, in the test with K-562 leukemia, with SNB-19 CNS and in the test with SK-MEL-5 melanoma was more than 25 µM throughout. In addition, the TGI in the test on MDA-MB-231 breast, in the test with KM12 colon, with M14 melanoma, in the test with SK-OV-3 ovarian, with NCI-H522 lung and in the test with MOLT-4 leukemia was more than 25 µM throughout. The TGI with LOX IMVI melanoma, in the test on K-562 leukemia, in the test on SNB-19 CNS and in the test on SK-MEL-5 melanoma was more than 25 µM throughout.
Take `Cc1cn2c(/C=C3/C(=O)Nc4ccc(C(=O)O)cc43)c(C)nc2s1`: the GI50 with MDA-MB-231 breast, with KM12 colon, with M14 melanoma, in the test on SK-OV-3 ovarian, in the test with NCI-H522 lung and in the test with MOLT-4 leukemia was more than 100 µM in each case. Also, the GI50 in the test with LOX IMVI melanoma, with K-562 leukemia, in the test with SNB-19 CNS and in the test on SK-MEL-5 melanoma was more than 100 µM each time. In addition, the TGI in the test with MDA-MB-231 breast, in the test on KM12 colon, in the test on M14 melanoma, with SK-OV-3 ovarian, with NCI-H522 lung and in the test on MOLT-4 leukemia was more than 100 µM each time. Further, the TGI in the test with LOX IMVI melanoma, in the test with K-562 leukemia, in the test on SNB-19 CNS and with SK-MEL-5 melanoma was more than 100 µM throughout.
As for `COc1cc2c(cc1OC)C(SC)C(=O)N(Cc1cccc(OC)c1OC)CC2` (stereo not given), the TGI in the test on MDA-MB-231 breast was more than 100 µM; in the test on KM12 colon, 40.3 µM; in the test with M14 melanoma it was 26.5 µM; in the test with SK-OV-3 ovarian, more than 100 µM; in the test on NCI-H522 lung, 3.07 µM; in the test with MOLT-4 leukemia, 45.5 µM. The TGI is more than 83.3 µM with LOX IMVI melanoma, 41.4 µM with K-562 leukemia, more than 100 µM with SNB-19 CNS and 9.52 µM in the test with SK-MEL-5 melanoma.
For the compound `CCC1=C(c2ccc(OC)cc2)CC[C@]2(CCNC2=O)[C@@H]1C`, the TGI is more than 100 µM with MDA-MB-231 breast; more than 91.7 µM in the test on KM12 colon; 62.7 µM in the test on M14 melanoma; 97.1 µM in the test on SK-OV-3 ovarian; 56.3 µM with NCI-H522 lung; 39.7 µM in the test on MOLT-4 leukemia. Besides, the TGI in the test on LOX IMVI melanoma is 60.5 µM; in the test on K-562 leukemia it was 48.7 µM; in the test with SNB-19 CNS it was more than 100 µM; in the test with SK-MEL-5 melanoma, 31.1 µM.
As to `CCOC(=O)C1=C(C)N(Cc2ccc(Cl)cc2Cl)[C@]2(C#N)C(O)=C(Cl)C(Cl)=C(O)[C@]12C#N`, the GI50 in the test on MDA-MB-231 breast is 26.7 µM; in the test on KM12 colon it was more than 100 µM; in the test with M14 melanoma, more than 100 µM; in the test with SK-OV-3 ovarian, more than 100 µM; in the test with NCI-H522 lung, 42.5 µM; in the test with MOLT-4 leukemia, 27.9 µM. Further, the GI50 with LOX IMVI melanoma is 17.5 µM; with K-562 leukemia it was 28.1 µM; in the test with SNB-19 CNS, 92.8 µM; with SK-MEL-5 melanoma it was more than 100 µM. Besides, the TGI in the test on MDA-MB-231 breast was 98.9 µM; in the test with KM12 colon it was more than 100 µM; with M14 melanoma it was more than 100 µM; in the test with SK-OV-3 ovarian, more than 100 µM; with NCI-H522 lung it was more than 100 µM; in the test on MOLT-4 leukemia, 61.6 µM. The TGI is 35 µM in the test with LOX IMVI melanoma, 57.5 µM in the test with K-562 leukemia, more than 100 µM in the test with SNB-19 CNS and more than 100 µM in the test with SK-MEL-5 melanoma.
